Experiments:
Format in all cases: in vivo
[1] = tested on: velvetleaf (Abutilon theophrasti); test: Test A pre-/postemergence plant response; settings: for Velvetleaf plant response rating: visual injury, 0 to 100 scale (0 no effect, 100 complete control), approx. ten days
Outline: (§1)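 Injury scores (0, no effect; 100, complete control) come from visual comparison with untreated controls roughly ten days post-treatment. Test chemicals in a surfactant-containing non-phytotoxic solvent were applied as a directed soil spray preemergence and to one- to two-leaf seedlings postemergence.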

[2] = tested on: barnyardgrass (Echinochloa crus-galli); test: Test A pre-/postemergence plant response; settings: for Barnyardgrass plant response rating: visual injury, 0 to 100 scale (0 no effect, 100 complete control), approx. ten days
Outline: as §1

[3] = tested on: large crabgrass (Digitaria sanguinalis); test: Test A pre-/postemergence plant response; settings: for Crabgrass, Large plant response rating: visual injury, 0 to 100 scale (0 no effect, 100 complete control), approx. ten days
Outline: as §1

[4] = tested on: giant foxtail (Setaria faberii); test: Test A pre-/postemergence plant response; settings: for Foxtail, Giant plant response rating: visual injury, 0 to 100 scale (0 no effect, 100 complete control), approx. ten days
Outline: as §1

[5] = tested on: morningglory (Ipomoea spp.); test: Test A pre-/postemergence plant response; settings: for Morningglory plant response rating: visual injury, 0 to 100 scale (0 no effect, 100 complete control), approx. ten days
Outline: as §1

[6] = tested on: pigweed (Amaranthus retroflexus); test: Test A pre-/postemergence plant response; settings: for Pigweed plant response rating: visual injury, 0 to 100 scale (0 no effect, 100 complete control), approx. ten days
Outline: as §1

corn (Zea mays) = test: Test A pre-/postemergence plant response; settings: for Corn plant response rating: visual injury, 0 to 100 scale (0 no effect, 100 complete control), approx. ten days
Outline: as §1

[7] = tested on: wheat (Triticum aestivum); test: Test A pre-/postemergence plant response; settings: for Wheat plant response rating: visual injury, 0 to 100 scale (0 no effect, 100 complete control), approx. ten days
Outline: as §1

[8] = tested on: barnyardgrass (Echinochloa crus-galli); test: Test B flooded paddy test; settings: for Plant response rating, Flood, Barnyardgrass: 250 g ai/ha, flooded paddy test, visual rating on 0 to 100 scale (0 no effect, 100 complete control) after 13 to 15 days; for Plant response rating, Barnyardgrass: Flood (flooded paddy test), 13 to 15 days; for Barnyardgrass plant response rating: Flood, 31 g ai/ha, scale 0 to 100 (0 no effect, 100 complete control)
Outline: (§2)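 Visual scores run from 0 (no effect) to 100 (complete control), assigned by comparison with controls 13 to 15 days after treatment. Test compounds went straight into water standing 3 cm above the soil, around plants at the 2-leaf stage kept in a greenhouse.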

[9] = tested on: umbrella sedge (Cyperus difformis); test: Test B flooded paddy test; settings: for Plant response rating, Flood, Sedge, Umbrella: 250 g ai/ha, flooded paddy test, visual rating on 0 to 100 scale (0 no effect, 100 complete control) after 13 to 15 days; for Plant response rating, Sedge, Umbrella: Flood (flooded paddy test), 13 to 15 days; for Sedge, Umbrella plant response rating: Flood, 31 g ai/ha, scale 0 to 100 (0 no effect, 100 complete control)
Outline: as §2

[10] = tested on: ducksalad (Heteranthera limosa); test: Test B flooded paddy test; settings: for Plant response rating, Flood, Ducksalad: 250 g ai/ha, flooded paddy test, visual rating on 0 to 100 scale (0 no effect, 100 complete control) after 13 to 15 days; for Plant response rating, Ducksalad: Flood (flooded paddy test), 13 to 15 days; for Ducksalad plant response rating: Flood, 31 g ai/ha, scale 0 to 100 (0 no effect, 100 complete control)
Outline: as §2

rice (Oryza sativa) = test: Test B flooded paddy test; settings: for Plant response rating, Flood, Rice: 250 g ai/ha, flooded paddy test, visual rating on 0 to 100 scale (0 no effect, 100 complete control) after 13 to 15 days; for Plant response rating, Rice: Flood (flooded paddy test), 13 to 15 days; for Rice plant response rating: Flood, 31 g ai/ha, scale 0 to 100 (0 no effect, 100 complete control)
Outline: as §2

[11] = tested on: winter barley (Hordeum vulgare); test: Test B postemergence plant response; settings: Postemergence
Outline: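 Plants at the 1- to 4-leaf stage (2 to 18 cm tall), grown in pots of peat moss/vermiculite medium with wetting agent and starter nutrients, received postemergence applications of test chemicals. After 13 to 15 days in a greenhouse, injury was rated visually against untreated controls on a 0 (no effect) to 100 (complete control) scale.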

[12] = Postemergence, 125 g ai/ha, 0 to 100 scale where 0 is no effect and 100 is complete control
[13] = Preemergence, 125 g ai/ha, 0 to 100 scale, 0 = no effect, 100 = complete control
[14] = Preemergence, 500 g ai/ha, 0 to 100 scale, 0 = no effect, 100 = complete control
[15] = 62 g ai/ha, scale of 0 to 100 where 0 is no effect and 100 is complete control
[16] = 125 g ai/ha, scale 0 to 100, 0 is no effect, 100 is complete control
[17] = 31 g ai/ha, 0 to 100 scale (0 no effect, 100 complete control)
[18] = 62 g ai/ha, scale 0 to 100 (0 no effect, 100 complete control)
[19] = 250 g ai/ha, scale 0 to 100 (0 no effect, 100 complete control), 13 to 15 days

For `COc1ccc(-n2c(-c3ccccc3)ncc(C(=O)C3=C(O)CCCC3=O)c2=O)cc1OC` [Compound 218], the “Plant response rating, Velvetleaf” value [1, 12] was 100, the “Velvetleaf plant response rating” value ([1]; Postemergence, 500 g ai/ha) was 100 and the “Plant response rating, Velvetleaf” value [1, 13] was 50. For the same compound, the “Plant response rating, Velvetleaf” value [1, 14] was 90, the “Plant response rating, Barnyardgrass” value [2, 12] was 80 and the “Barnyardgrass plant response rating” value ([2]; Postemergence, 500 g ai/ha) was 90. The “Plant response rating, Barnyardgrass” value [2, 13] was 20, the “Plant response rating, Barnyardgrass” value [2, 14] was 100 and the “Plant response rating, Crabgrass, Large” value [3, 12] was 20. For the same compound, the “Crabgrass, Large plant response rating” value ([3]; Postemergence, 500 g ai/ha) was 70, the “Plant response rating, Crabgrass, Large” value [3, 13] was 10 and the “Plant response rating, Crabgrass, Large” value [3, 14] was 80. For the same compound, the “Plant response rating, Foxtail, Giant” value [4, 12] was 40, the “Foxtail, Giant plant response rating” value ([4]; Postemergence, 500 g ai/ha) was 70 and the “Plant response rating, Foxtail, Giant” value [4, 13] was 0. The “Plant response rating, Foxtail, Giant” value [4, 14] was 50, the “Plant response rating, Morningglory” value [5, 12] was 80 and the “Morningglory plant response rating” value ([5]; Postemergence, 500 g ai/ha) was 100. For the same compound, the “Plant response rating, Morningglory” value [5, 13] was 0, the “Plant response rating, Morningglory” value [5, 14] was 80 and the “Plant response rating, Pigweed” value [6, 12] was 100. The “Pigweed plant response rating” value ([6]; Postemergence, 500 g ai/ha) was 100, the “Plant response rating, Pigweed” value [6, 13] was 20 and the “Plant response rating, Pigweed” value [6, 14] was 90. The “Plant response rating, Corn” value (corn (Zea mays); [12]) was 0, the “Corn plant response rating” value (corn (Zea mays); Postemergence, 500 g ai/ha) was 70 and the “Plant response rating, Corn” value (corn (Zea mays); [13]) was 0. For the same compound, the “Plant response rating, Corn” value (corn (Zea mays); [14]) was 0, the “Plant response rating, Wheat” value [7, 12] was 0 and the “Wheat plant response rating” value ([7]; Postemergence, 500 g ai/ha) was 0. For the same compound, the “Plant response rating, Wheat” value [7, 13] was 0, the “Plant response rating, Wheat” value [7, 14] was 0 and the “Plant response rating, Flood, Barnyardgrass” value [8] was 40. The “Plant response rating, Barnyardgrass” value [8, 15] was 0, the “Plant response rating, Barnyardgrass” value [8, 16] was 30 and the “Barnyardgrass plant response rating” value [8] was 0. For the same compound, the “Plant response rating, Flood, Sedge, Umbrella” value [9] was 85, the “Plant response rating, Sedge, Umbrella” value [9, 15] was 80 and the “Plant response rating, Sedge, Umbrella” value [9, 16] was 85. For the same compound, the “Sedge, Umbrella plant response rating” value [9] was 75, the “Plant response rating, Flood, Ducksalad” value [10] was 95 and the “Plant response rating, Ducksalad” value [10, 15] was 80. For the same compound, the “Plant response rating, Ducksalad” value [10, 16] was 85, the “Ducksalad plant response rating” value [10] was 75 and the “Plant response rating, Flood, Rice” value (rice (Oryza sativa)) was 15. The “Plant response rating, Rice” value (rice (Oryza sativa); [15]) was 0, the “Plant response rating, Rice” value (rice (Oryza sativa); [16]) was 10 and the “Rice plant response rating” value (rice (Oryza sativa)) was 0. The “Plant response rating, Barley” value [11, 17] was 30, the “Plant response rating, Barley” value [11, 18] was 30 and the “Plant response rating, Barley” value ([11]; 125 g ai/ha, scale 0 to 100 (0 no effect, 100 complete control)) was 35. For the same compound, the “Plant response rating, Barley” value [11, 19] was 35.
`CCn1c(-c2ccccc2)ncc(C(=O)C2=C(O)C3CCC(C3)C2=O)c1=O` (stereo not shown) [Compound 239] was tested, and the “Plant response rating, Velvetleaf” value [1, 12] was 100, the “Velvetleaf plant response rating” value ([1]; Postemergence, 500 g ai/ha) was 100 and the “Plant response rating, Velvetleaf” value [1, 13] was 80. The “Plant response rating, Velvetleaf” value [1, 14] was 100, the “Plant response rating, Barnyardgrass” value [2, 12] was 90 and the “Barnyardgrass plant response rating” value ([2]; Postemergence, 500 g ai/ha) was 90. For the same compound, the “Plant response rating, Barnyardgrass” value [2, 13] was 20, the “Plant response rating, Barnyardgrass” value [2, 14] was 80 and the “Plant response rating, Crabgrass, Large” value [3, 12] was 80. For the same compound, the “Crabgrass, Large plant response rating” value ([3]; Postemergence, 500 g ai/ha) was 90, the “Plant response rating, Crabgrass, Large” value [3, 13] was 70 and the “Plant response rating, Crabgrass, Large” value [3, 14] was 100. The “Plant response rating, Foxtail, Giant” value [4, 12] was 70, the “Foxtail, Giant plant response rating” value ([4]; Postemergence, 500 g ai/ha) was 80 and the “Plant response rating, Foxtail, Giant” value [4, 13] was 20. For the same compound, the “Plant response rating, Foxtail, Giant” value [4, 14] was 70, the “Plant response rating, Morningglory” value [5, 12] was 100 and the “Morningglory plant response rating” value ([5]; Postemergence, 500 g ai/ha) was 100. The “Plant response rating, Morningglory” value [5, 14] was 50, the “Plant response rating, Pigweed” value [6, 12] was 80 and the “Pigweed plant response rating” value ([6]; Postemergence, 500 g ai/ha) was 90. The “Plant response rating, Pigweed” value [6, 13] was 70, the “Plant response rating, Pigweed” value [6, 14] was 100 and the “Plant response rating, Corn” value (corn (Zea mays); [12]) was 30. For the same compound, the “Corn plant response rating” value (corn (Zea mays); Postemergence, 500 g ai/ha) was 30, the “Plant response rating, Corn” value (corn (Zea mays); [13]) was 0 and the “Plant response rating, Corn” value (corn (Zea mays); [14]) was 0. For the same compound, the “Plant response rating, Wheat” value [7, 12] was 0, the “Wheat plant response rating” value ([7]; Postemergence, 500 g ai/ha) was 0 and the “Plant response rating, Wheat” value [7, 13] was 0. The “Plant response rating, Wheat” value [7, 14] was 30, the “Plant response rating, Flood, Barnyardgrass” value [8] was 15 and the “Plant response rating, Barnyardgrass” value [8, 15] was 0. For the same compound, the “Plant response rating, Barnyardgrass” value [8, 16] was 0, the “Barnyardgrass plant response rating” value [8] was 0 and the “Plant response rating, Flood, Sedge, Umbrella” value [9] was 75. The “Plant response rating, Sedge, Umbrella” value [9, 15] was 0, the “Plant response rating, Sedge, Umbrella” value [9, 16] was 40 and the “Sedge, Umbrella plant response rating” value [9] was 0. The “Plant response rating, Flood, Ducksalad” value [10] was 80, the “Plant response rating, Ducksalad” value [10, 15] was 0 and the “Plant response rating, Ducksalad” value [10, 16] was 70. For the same compound, the “Ducksalad plant response rating” value [10] was 0, the “Plant response rating, Flood, Rice” value (rice (Oryza sativa)) was 0 and the “Plant response rating, Rice” value (rice (Oryza sativa); [15]) was 0. The “Plant response rating, Rice” value (rice (Oryza sativa); [16]) was 0, the “Rice plant response rating” value (rice (Oryza sativa)) was 0 and the “Plant response rating, Barley” value [11, 17] was 0. The “Plant response rating, Barley” value [11, 18] was 0, the “Plant response rating, Barley” value ([11]; 125 g ai/ha, scale 0 (no effect) to 100 (complete control), 13 to 15 days) was 5 and the “Plant response rating, Barley” value [11, 19] was 5.

— patent US8952024B2, “Herbicidal pyrimidone derivatives” (E I du Pont de Nemours and Company, priority 2009, dated 2015)
